Results taken from patent publication US20240415914A1, “Water Dispersible Cannabinoid Compositions” (priority 2021, published 2024).
Like-named read-outs stand apart in the source and are kept apart here.

Tests used:
[1] = type: physicochemical; conditions: stored at room temperature (21-25° C.)
Protocol: At each time period, 0.05 g of powder was dissolved in 10 ml-15 of ethanol, diluted to fall within the analytical range, and injected into the LCMSMS for analysis.

[2] = Stability of cannabinoid and Vitamin E components of Beverage 2 (AB Red) stored at 8° C. and 21-25° C., LCMSMS over 570 days
Protocol: The LCMSMS was calibrated for 0-50 ng/ml cannabinoids with the same resin material used in the preparation of the concentrates. At each time period, 100 μml of beverage was diluted with 10 ml of methanol and injected into the LCMSMS for analysis.

C=C(C)[C@@H]1CCC(C)=C[C@H]1c1c(O)cc(CCC)cc1O [CBDV, cannabidivarin]
0.201 µg/mL: Stability of Cannabinoids in AB Red ([2]; 8° C., 9 days)
0.190 µg/mL: Stability of Cannabinoids in AB Red ([2]; 8° C., 480 days)
0.20 µg/mL: Stability of Cannabinoids in AB Red ([2]; 21-25° C., 0 days) | Stability of Cannabinoids in AB Red ([2]; 21-25° C., 1 days) | Stability of Cannabinoids in AB Red ([2]; 21-25° C., 2 days) | Stability of Cannabinoids in AB Red ([2]; 21-25° C., 3 days) | Stability of Cannabinoids in AB Red ([2]; 21-25° C., 8 days) | Stability of Cannabinoids in AB Red ([2]; 21-25° C., 9 days) | Stability of Cannabinoids in AB Red ([2]; 21-25° C., 10 days) | Stability of Cannabinoids in AB Red ([2]; 21-25° C., 11 days) | Stability of Cannabinoids in AB Red ([2]; 21-25° C., 12 days) | Stability of Cannabinoids in AB Red ([2]; 21-25° C., 15 days) | Stability of Cannabinoids in AB Red ([2]; 21-25° C., 17 days) | Stability of Cannabinoids in AB Red ([2]; 21-25° C., 18 days) | Stability of Cannabinoids in AB Red ([2]; 21-25° C., 22 days) | Stability of Cannabinoids in AB Red ([2]; 21-25° C., 30 days) | Stability of Cannabinoids in AB Red ([2]; 21-25° C., 60 days) | Stability of Cannabinoids in AB Red ([2]; 21-25° C., 150 days) | Stability of Cannabinoids in AB Red ([2]; 21-25° C., 180 days) | Stability of Cannabinoids in AB Red ([2]; 21-25° C., 240 days) | Stability of Cannabinoids in AB Red ([2]; 21-25° C., 270 days)
0.183 µg/mL: Stability of Cannabinoids in AB Red ([2]; 8° C., 570 days)
0.196 µg/mL: Stability of Cannabinoids in AB Red ([2]; 8° C., 90 days)
0.050 mg/g powder: Stability in Powder Concentrate (content by LCMSMS) ([1]; day 0) | Stability in Powder Concentrate (content by LCMSMS) ([1]; day 5) | Stability in Powder Concentrate (content by LCMSMS) ([1]; day 10) | Stability in Powder Concentrate (content by LCMSMS) ([1]; day 15) | Stability in Powder Concentrate (content by LCMSMS) ([1]; day 23) | Stability in Powder Concentrate (content by LCMSMS) ([1]; day 26) | Stability in Powder Concentrate (content by LCMSMS) ([1]; day 60) | Stability in Powder Concentrate (content by LCMSMS) ([1]; day 90) | Stability in Powder Concentrate (content by LCMSMS) ([1]; day 120) | Stability in Powder Concentrate (content by LCMSMS) ([1]; day 180) | Stability in Powder Concentrate (content by LCMSMS) ([1]; day 360)
0.200 µg/mL: Stability of Cannabinoids in AB Red ([2]; 8° C., 0 days) | Stability of Cannabinoids in AB Red ([2]; 8° C., 22 days) | Stability of Cannabinoids in AB Red ([2]; 8° C., 30 days)
0.191 µg/mL: Stability of Cannabinoids in AB Red ([2]; 8° C., 330 days)
0.052 mg/g powder: Stability in Powder Concentrate (content by LCMSMS) ([1]; day 25) | Stability in Powder Concentrate (content by LCMSMS) ([1]; day 240) | Stability in Powder Concentrate (content by LCMSMS) ([1]; day 330) | Stability in Powder Concentrate (content by LCMSMS) ([1]; day 540)
0.199 µg/mL: Stability of Cannabinoids in AB Red ([2]; 8° C., 3 days) | Stability of Cannabinoids in AB Red ([2]; 8° C., 19 days) | Stability of Cannabinoids in AB Red ([2]; 8° C., 25 days) | Stability of Cannabinoids in AB Red ([2]; 8° C., 26 days) | Stability of Cannabinoids in AB Red ([2]; 8° C., 60 days)
0.198 µg/mL: Stability of Cannabinoids in AB Red ([2]; 8° C., 5 days) | Stability of Cannabinoids in AB Red ([2]; 8° C., 8 days) | Stability of Cannabinoids in AB Red ([2]; 8° C., 12 days) | Stability of Cannabinoids in AB Red ([2]; 8° C., 150 days)
0.18 µg/mL: Stability of Cannabinoids in AB Red ([2]; 21-25° C., 570 days)
0.192 µg/mL: Stability of Cannabinoids in AB Red ([2]; 8° C., 180 days) | Stability of Cannabinoids in AB Red ([2]; 8° C., 240 days)
0.048 mg/g powder: Stability in Powder Concentrate (content by LCMSMS) ([1]; day 3) | Stability in Powder Concentrate (content by LCMSMS) ([1]; day 19) | Stability in Powder Concentrate (content by LCMSMS) ([1]; day 570)
0.19 µg/mL: Stability of Cannabinoids in AB Red ([2]; 21-25° C., 5 days) | Stability of Cannabinoids in AB Red ([2]; 21-25° C., 16 days) | Stability of Cannabinoids in AB Red ([2]; 21-25° C., 19 days) | Stability of Cannabinoids in AB Red ([2]; 21-25° C., 23 days) | Stability of Cannabinoids in AB Red ([2]; 21-25° C., 24 days) | Stability of Cannabinoids in AB Red ([2]; 21-25° C., 25 days) | Stability of Cannabinoids in AB Red ([2]; 21-25° C., 26 days) | Stability of Cannabinoids in AB Red ([2]; 21-25° C., 29 days) | Stability of Cannabinoids in AB Red ([2]; 21-25° C., 90 days) | Stability of Cannabinoids in AB Red ([2]; 21-25° C., 120 days) | Stability of Cannabinoids in AB Red ([2]; 21-25° C., 210 days) | Stability of Cannabinoids in AB Red ([2]; 21-25° C., 300 days) | Stability of Cannabinoids in AB Red ([2]; 21-25° C., 330 days) | Stability of Cannabinoids in AB Red ([2]; 21-25° C., 390 days) | Stability of Cannabinoids in AB Red ([2]; 21-25° C., 420 days) | Stability of Cannabinoids in AB Red ([2]; 21-25° C., 450 days) | Stability of Cannabinoids in AB Red ([2]; 21-25° C., 480 days) | Stability of Cannabinoids in AB Red ([2]; 21-25° C., 510 days) | Stability of Cannabinoids in AB Red ([2]; 21-25° C., 540 days)
0.185 µg/mL: Stability of Cannabinoids in AB Red ([2]; 8° C., 540 days)
0.049 mg/g powder: Stability in Powder Concentrate (content by LCMSMS) ([1]; day 9) | Stability in Powder Concentrate (content by LCMSMS) ([1]; day 16) | Stability in Powder Concentrate (content by LCMSMS) ([1]; day 22) | Stability in Powder Concentrate (content by LCMSMS) ([1]; day 29) | Stability in Powder Concentrate (content by LCMSMS) ([1]; day 210) | Stability in Powder Concentrate (content by LCMSMS) ([1]; day 300) | Stability in Powder Concentrate (content by LCMSMS) ([1]; day 390) | Stability in Powder Concentrate (content by LCMSMS) ([1]; day 450) | Stability in Powder Concentrate (content by LCMSMS) ([1]; day 510)
0.194 µg/mL: Stability of Cannabinoids in AB Red ([2]; 8° C., 1 days) | Stability of Cannabinoids in AB Red ([2]; 8° C., 10 days) | Stability of Cannabinoids in AB Red ([2]; 8° C., 15 days) | Stability of Cannabinoids in AB Red ([2]; 8° C., 23 days) | Stability of Cannabinoids in AB Red ([2]; 8° C., 390 days)
0.184 µg/mL: Stability of Cannabinoids in AB Red ([2]; 8° C., 510 days)
0.193 µg/mL: Stability of Cannabinoids in AB Red ([2]; 8° C., 120 days) | Stability of Cannabinoids in AB Red ([2]; 8° C., 210 days) | Stability of Cannabinoids in AB Red ([2]; 8° C., 300 days) | Stability of Cannabinoids in AB Red ([2]; 8° C., 420 days)
0.195 µg/mL: Stability of Cannabinoids in AB Red ([2]; 8° C., 11 days) | Stability of Cannabinoids in AB Red ([2]; 8° C., 16 days) | Stability of Cannabinoids in AB Red ([2]; 8° C., 17 days) | Stability of Cannabinoids in AB Red ([2]; 8° C., 18 days) | Stability of Cannabinoids in AB Red ([2]; 8° C., 270 days) | Stability of Cannabinoids in AB Red ([2]; 8° C., 450 days)
0.051 mg/g powder: Stability in Powder Concentrate (content by LCMSMS) ([1]; day 1) | Stability in Powder Concentrate (content by LCMSMS) ([1]; day 2) | Stability in Powder Concentrate (content by LCMSMS) ([1]; day 8) | Stability in Powder Concentrate (content by LCMSMS) ([1]; day 11) | Stability in Powder Concentrate (content by LCMSMS) ([1]; day 12) | Stability in Powder Concentrate (content by LCMSMS) ([1]; day 17) | Stability in Powder Concentrate (content by LCMSMS) ([1]; day 18) | Stability in Powder Concentrate (content by LCMSMS) ([1]; day 24) | Stability in Powder Concentrate (content by LCMSMS) ([1]; day 30) | Stability in Powder Concentrate (content by LCMSMS) ([1]; day 150) | Stability in Powder Concentrate (content by LCMSMS) ([1]; day 270) | Stability in Powder Concentrate (content by LCMSMS) ([1]; day 420) | Stability in Powder Concentrate (content by LCMSMS) ([1]; day 480)
0.197 µg/mL: Stability of Cannabinoids in AB Red ([2]; 8° C., 2 days) | Stability of Cannabinoids in AB Red ([2]; 8° C., 24 days) | Stability of Cannabinoids in AB Red ([2]; 8° C., 29 days)
